Reference: article PMC6208443 (Nature Communications, 2018)

Legend:
Assay type in all cases: binding, Arabidopsis thaliana
Conditions in all cases: result in words
[1] = test system: AGDP1; assay: Peptide affinity purification and mass spectrometry, AGDP1
Experimental: (§1) To extract the nuclear proteins for peptide affinity purification, 1 g of wild-type Arabidopsis flowers was harvested and ground in liquid nitrogen. […] The filtrates were centrifuged at 2000 g for 15 min at 4 °C to precipitate the nuclei. Nuclear pellets were washed two times with 1 ml of Honda buffer and then were resuspended in 600 μl of Nuclei Lysis Buffer (50 mM Tris-HCl pH 8.0, 150 mM NaCl, 1% NP40, 0.5 mM DTT, 1 mM PMSF, Roche protease inhibitor cocktail). After sonication, nuclei extracts were centrifuged at 20,000 g for 10 min at 4 °C. The supernatant was incubated with 2 μg of biotinylated histone peptides and Streptavidin Magnetic Beads (Thermo Scientific, 88816) for 3 h with rotation at 4 °C. […] After incubation, beads were washed three times with wash buffer 1 (320 mM NaCl, 50 mM Tris-HCl pH 8.0, 0.5% NP40), and three times with wash buffer 2 (150 mM NaCl, 50 mM Tris-HCl pH 8.0).
(§2) For LC-MS/MS analysis, IP beads with captured proteins were lysed in 12 mM sodium deoxycholate (SDC)-sodium lauroyl sarcosinate (SLS): 100 mM Tris-HCl (pH 8.5), 12 mM SDC, and 12 mM SLS. Proteins were reduced and alkylated with 10 mM tris-(2-carboxyethyl) phosphine and 40 mM chloroacetamide at 95 °C for 5 min. The supernatant containing reduced and alkylated proteins was transferred into a new Eppendorf tube and diluted fivefold with 50 mM triethylammonium hydrogen carbonate buffer and digested with 500 ng trypsin (Sigma) overnight. The SDC and SLS were removed by adding 100% acetyl acetate in a ratio 1:1 (vol/vol) sample to acetyl acetate volume ratio. Samples were acidified with 10% trifluoroacetic acid to pH ~3, and desalted by a custom-made stage tip with a styrene divinyl benzene (SDB-XC) membrane (3 M). The dried peptides were resuspended in 30 μL of 0.3% formic acid (FA) with 3% acetonitrile (ACN), quantified by BCA assay (Thermo Fisher Scientific), and injected into an Easy-nLC 1000 (Thermo Fisher Scientific). Peptides were separated on a 45 cm in-house packed column (360 μm OD × 75 μm ID) containing C18 resin (2.2 μm, 100 Å, Michrom Bioresources) with a 30 cm column heater (Analytical Sales and Services) set at 60 °C. The mobile phase buffer consisted of 0.1% FA in ultra-pure water (buffer A) with an eluting buffer of 0.1% FA in 80% ACN (buffer B) run over a linear 65 min gradient of 5%-30% buffer B at a flow rate of 250 nL/min. The Easy-nLC 1000 was coupled online with a Velos Pro LTQ-Orbitrap mass spectrometer (Thermo Fisher Scientific). The mass spectrometer was operated in the data-dependent mode in which a full MS scan (from m/z 350–1500 with the resolution of 30,000 at 400 m/z) was followed by the 10 most intense ions being subjected to collision-induced dissociation (CID) fragmentation. […]

[2] = test system: CMT3; assay: Peptide affinity purification and mass spectrometry, CMT3
Experimental: as §1
as §2, with “[…] Search” for “The mass spectrometer”, “performed with full tryptic digestion and allowed a maximum of two missed cleavages on” for “operated in”, “peptides analyzed from” for “data-dependent mode in which a full MS scan (from m/z 350–1500 with”, “sequence database.” for “resolution of 30,000 at 400 m/z) was followed by the 10 most intense ions being subjected to collision-induced dissociation (CID) fragmentation.”

[3] = test system: EDM2; assay: Peptide affinity purification and mass spectrometry, EDM2
Experimental: as §1, §2

[4] = test system: CMT2; assay: Peptide affinity purification and mass spectrometry, CMT2
Experimental: as §1
as §2, with “[…] Search” for “The mass spectrometer”, “performed with full tryptic digestion and allowed a maximum of two missed cleavages on” for “operated in”, “peptides analyzed from” for “data-dependent mode in which a full MS scan (from m/z 350–1500 with”, “sequence database.” for “resolution of 30,000 at 400 m/z) was followed by the 10 most intense ions being subjected to collision-induced dissociation (CID) fragmentation.”

Substance	identification from pull-down samples [1]	presence in pull-down products [2]	presence in pull-down products [3]	presence in pull-down products [4]
H3(1-21)K9me3: synthesized biotinylated H3(1-21)K9me3 peptide, EMD Millipore	identified	present	present	present
H3(1-21)K9me2: synthesized biotinylated H3(1-21)K9me2 peptide, EMD Millipore	identified	present	present	present
H3(1-21): synthesized biotinylated H3(1-21) peptide, EMD Millipore	not from the H3 pull-down samples	not in H3 pull-down products	not in H3 pull-down products	not in H3 pull-down products
H3(1-21)K9me1: synthesized biotinylated H3(1-21)K9me1 peptide, EMD Millipore	identified	present	present	present
